Values of other authors, collected in patent US11304900B1, “Transparent colloidal vitamin supplement blend” (Quicksilver Scientific, Inc., priority 2017, dated 2022).
Like-named read-outs stand apart in the source and are kept apart here.

Columns and labels:
[1] = not given; remark: listed apart in the source
[2] = in vivo

Row | Structure (SMILES) | blood serum concentration at which antiviral effect has been demonstrated | mean peak plasma level ([1]; IV administration of 50 g/day) | increase of plasma concentration ([1]; daily intake increased from 200 mg/day to 2,500 mg/day) | highest blood serum level observed ([1]; oral administration of pharmacological doses) | plasma concentration ([1]; oral daily intake 200 mg/day) | plasma concentration ([1]; oral daily intake 2,500 mg/day) | change in serum levels ([2]; iv) | change in blood serum magnesium concentration ([2]; po)
1 | O=C1O[C@H]([C@@H](O)CO)C(O)=C1O [Vitamin C, ascorbic acid] | 10 to 15 mg/dL | 80 mg/dL | 25% | 9.3 mg/dL | 1.2 mg/dL | 1.5 mg/dL |  | 
2 | [Mg+2] [magnesium] |  |  |  |  |  |  | double or triple | little or no change
